Source: patent US20220064167A1, “IMIDAZO-PYRAZOLE CARBOXAMIDE DERIVATIVES AS ANTICANCER AGENTS AND THE SYNTHESIS THEREOF” (AVIDIN KFT., priority 2018, published 2022)

Tests used:
HL-60 cells = assay: resazurin viability assay, Example 103 (FIG. 1); type: cell-based; conditions: Homo sapiens, 72 h incubation, 20.000 cells/well, read-out: half-inhibitory concentration (IC50) on viability of HL-60 cells
Description: The human primary fibroblasts (6000 cells/well) and Hl60 cells (20.000 cells/well) were seeded into 96-well plates (Corning Life Sciences) in media. Fibroblasts were cultured overnight before treatment. Effects of compounds described in Example 22, 60 and 83 were examined in concentrations of 1 μM, 250 nM, 62.5 nM, 15.6 nM, 3.9 nM and 0.9 nM in 100 μl after 72 h incubation. Resazurin reagent was prepared and used as described in Example 1.
(§1) Viability was calculated with relation to untreated control cells and blank wells containing media without cells. IC50 values (50% inhibiting concentration) were calculated by GraphPad Prism® 5.

[1] = test system: human primary fibroblasts; assay: resazurin viability assay on primary fibroblasts, Example 103 (FIG. 1); type: cell-based; conditions: 72 h incubation, applied concentration range 1.6 nM-5 μM
Source text: To obtain primary human fibroblasts healthy volunteers (age 18-60 years) were enrolled into the study. The punch biopsies were taken from healthy subjects from the breast area undergoing plastic surgery. Primary fibroblasts were obtained from the skin by enzymatic digestion according to a standard protocol. Skin specimens were first washed in Salsol A solution (Human Rt, Gödöllö, Hungary) supplemented with 2% antibiotic/antimycotic solution (Sigma-Aldrich). Skin samples were then cut into narrow strips and incubated in Dispase solution (Roche Diagnostics, Mannheim, Germany) overnight at 4° C. The epidermis was subsequently separated from the dermis. Fibroblasts were obtained by incubating the dermis in Digestion Mix solution (Collagenase, Hyaluronidase and Deoxyribonuclease) for 2h at 37° C. Cell suspensions were filtered through a 100 μm nylon mesh (BD Falcon, San Jose, Calif., USA) and cells were pelleted by centrifugation. Fibroblasts were grown in low glucose DMEM medium containing 5% FBS, 1% antibiotic/antimycotic (PAA, Pasching, Austria) and 1% L-glutamine solution (PAA). Fibroblasts were cultured at 37° C. and 5% CO2 in humidified conditions. Depending on the cell growth, the medium was changed every 2-4 days and cells were passaged at 80% of confluence.
The human primary fibroblasts (6000 cells/well) and Hl60 cells (20.000 cells/well) were seeded into 96-well plates (Corning Life Sciences) in media. Fibroblasts were cultured overnight before treatment. […] Resazurin reagent was prepared and used as described in Example 1.
as §1

[2] = test system: pAkt (Ser473) in HL-60 cells; assay: flow cytometry of pAkt bright cells (FIG. 2B); type: cell-based, human; conditions: HL-60, 40 nM, 200 nM and 1 μM
Description: (§2) Human promyelocytic leukemia HL60 Cells (500,000/well) were plated in 24-well tissue culture plates (Corning Life Sciences) in RPMI 10% FCS (Gibco) and were treated with the compounds described in Example 60 and 83 at 40 nM, 200 nM and 1 μM concentrations in 500 μl media. After 24 h incubation time cells with the corresponding supernatants were harvested and centrifuged down (2000 rpm, 5 min).
(§3) Pellets were resuspended and fixed in 3.5% PBS buffered formaldehyde (Molar Chemicals) for 10 minutes. Cells were washed with FACS-buffer (2% FCS, (Gibco) in PBS), centrifuged down (2000 rpm, 5 min). Cells were permeabilized in Permeability buffer (1% FCS, 0.1% saponin (Sigma-Aldrich) in PBS pH 7.4) for 5 minutes. Cells were washed with FACS buffer (2% FCS, (Gibco) in PBS), centrifuged (2000 rpm, 5 min). The following primary antibodies were used: Bcl-xl-Alexa 488, (Cell Signaling, cat. numb. 2767S), dilution 1:75, 24 h; pAkt-Alexa Fluor 488, (Ser473), (Cell Signaling, cat. numb, 4071), dilution 1:50, 24 or 72h; After incubation for 1h at 4° C. samples were washed two times with FACS buffer. […] In order to calculate the signal to noise ratio mean fluorescent intensity (MFI) was calculated by the following equation: =POWER(10; (Medianstained−Median unstained, untreated)/Chd), where Chd means 256, the number of channels per decade (Fajka-Boja et al. 2002; Sharrow 2001) in Microsoft Excel. […]

[3] = test system: active caspase-3 in HL-60 cells; assay: caspase-3 activation by flow cytometric immunofluorescence (FIG. 5); type: cell-based, human; conditions: HL-60, FIG. 5
Description: as §2, §3

HT168 (human melanoma) = assay: viability assay (Table 2); type: cell-based
Description: (§4) For viability assays cells were seeded in 96 well plates (MCF7 and 4T1: 6000, HL60: 120.000 cells/well) and incubated overnight. Compounds were dissolved in dimethyl sulfoxide (DMSO). Cells were treated with an increasing concentration of compounds having the general formula (I.) (156 nM-100 μM). Cell viability was determined after 72h incubation. Resazurin reagent (Sigma-Aldrich) was dissolved in PBS (pH 7.4) at 0.15 mg/ml concentration, sterile filtered (0.22 μm, Merck Millipore) and aliquoted at −20° C. Resazurin reagent (Sigma-Aldrich) was added at a final concentration of 25 μg/ml. After 2 hours incubation at 37° C. 5% CO2 fluorescence (530 nm excitation/580 nm emission) was recorded on a multimode microplate reader (Cytofluor4000, PerSeptive Biosytems). Viability was calculated with relation to untreated control cells and blank wells containing media without cells. IC50 values (50% inhibiting concentration) were calculated by GraphPad Prism® 5 (La Jolla, Calif., USA).
(§5) HT168 (human melanoma), HT199 (human melanoma), HT29 (human colorectal adenocarcinoma), MOLT4 (human leukemia) and U937 (human lymphoma) cells were maintained in Roswell Park Memorial Institute 1640 medium (RPMI-1640) 10% FCS. SKOV-3 cells were maintained in Dulbecco's Modified Eagle Medium/McCoy's medium (DMEM/McCoy) 10% FCS.
(§6) Media were supplemented with 2 mM GlutaMAX, and 100 U/mL penicillin, 100 μg/mL streptomycin (Life Technologies, Carlsbad, Calif., USA). Cell cultures were maintained at 37° C. in a humidified incubator in an atmosphere of 5% CO2 (Sanyo, Japan).
(§7) Viability assays were performed as described in Example 102.

HT199 (human melanoma) = assay: viability assay (Table 2); type: cell-based
Description: as §4, §5, §6, §7

[4] = test system: HT29 (human colorectal adenocarcinoma); assay: viability assay (Table 2); type: cell-based; conditions: HT-29
Description: as §4, §5, §6, §7

Row | SMILES | IC50 (HL-60 cells) | decrease in viability of human primary fibroblasts [1] | percentage of the pAkt bright cells [2] | percentage of active caspase-3 positive cells [3] | IC50 (HT168 (human melanoma)) | IC50 (HT199 (human melanoma)) | IC50 [4]
1 | CC(C)(C)Nc1c(C(C)(C)C)[nH]c2c(C(=O)Nc3ccc(F)cc3)cnn12 [Example 60, 2-(Tert-butyl)-N-(4-fluorophenyl)-3-((tert-butyl-2-yl)amino)-1H-imidazo[1,2-b]pyrazole-7-carboxamide] | 0.21 µM | Significant decrease in viability was not apparent | increase | increased | 0.5 µM | 0.3 µM | 0.25 µM
2 | CC(C)(C)Nc1c(C(C)(C)C)[nH]c2c(C(=O)Nc3ccc(N)cc3)cnn12 [Example 83, N-(4-Aminophenyl)-2-(tert-butyl)-3-(tert-butylamino)-1H-imidazo[1,2-b]pyrazole-7-carboxamide] | 0.05 µM | Significant decrease in viability was not apparent | increase | increased | 0.1 µM | 0.1 µM | 0.05 µM
